Laboratory results taken from the supplement of paper PMC5412046.
Structures can show the parent of a compound that is named as a salt.

Experiments:
SB.mhdgc-1 [1] = assay: viability at highest tested concentration (MAXR) relative to DMSO; higher = less cytotoxic; details: SB.mhdgc-1 (hereditary c.1380delA CDH1 gastric cancer)
How it was run: (§1)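 Hereditary or sporadic patient-derived gastric cancer cells (500 cells in 5 μL medium per 1536 well) received 23 nL compound in DMSO by pintool at 11 threefold-diluted concentrations, with the top concentration recorded per compound. After 48 h, CellTiter-Glo was added for 30 min at room temperature and luminescence read on a ViewLux. Values are DMSO-normalised viability, either at the highest concentration or as trapezoidal area under the curve.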

SB.msgc-1 [2] = assay: as above; details: SB.msgc-1 (sporadic gastric cancer)
How it was run: as §1

SB.mhdgc-1 [3] = assay: area under the dose-response curve of % viability (trapezoidal, 11 doses) (% viability x log10 concentration); higher = less cytotoxic; details: SB.mhdgc-1 (hereditary c.1380delA CDH1 gastric cancer)
How it was run: as §1

SB.msgc-1 [4] = assay: as above; details: SB.msgc-1 (sporadic gastric cancer)
How it was run: as §1

CCOC(=O)c1ncn2c1CN(C)C(=O)c1cc(F)ccc1-2 [Flumazenil] (top concentration 46.0829 µM)
viability (SB.mhdgc-1 [1]): 40.2%
viability (SB.msgc-1 [2]): 88%
area under the dose-response curve (SB.mhdgc-1 [3]): 512
area under the dose-response curve (SB.msgc-1 [4]): 583

Cn1c(Nc2ccc(C(F)(F)F)cc2)nc2cc(Oc3ccnc(-c4nc(C(F)(F)F)c[nH]4)c3)ccc21 [CHIR-265] (top concentration 46.0829 µM)
viability (SB.mhdgc-1 [1]): 57.8%
viability (SB.msgc-1 [2]): 48.9%
area under the dose-response curve (SB.mhdgc-1 [3]): 464
area under the dose-response curve (SB.msgc-1 [4]): 454

CC(C)c1nc(CN(C)C(=O)N[C@H](C(=O)N[C@@H](Cc2ccccc2)C[C@H](O)[C@H](Cc2ccccc2)NC(=O)OCc2cncs2)C(C)C)cs1 [Ritonavir] (top concentration 46.0829 µM)
viability (SB.mhdgc-1 [1]): 55.8%
viability (SB.msgc-1 [2]): 64.1%
area under the dose-response curve (SB.mhdgc-1 [3]): 426
area under the dose-response curve (SB.msgc-1 [4]): 472

COc1ccc(Nc2cc(-c3cnc(N)nc3)nc(N3CCOCC3)n2)cn1 [NIBR-17] (top concentration 46.0829 µM)
viability (SB.mhdgc-1 [1]): 37%
viability (SB.msgc-1 [2]): 37.7%
area under the dose-response curve (SB.mhdgc-1 [3]): 378
area under the dose-response curve (SB.msgc-1 [4]): 421

COc1ccc(C[C@@H](C)[C@@H](C)Cc2ccc(OC)c(OC)c2)cc1OC [Terameprocol] (top concentration 46.0829 µM)
viability (SB.mhdgc-1 [1]): 36.6%
viability (SB.msgc-1 [2]): 34.2%
area under the dose-response curve (SB.mhdgc-1 [3]): 445
area under the dose-response curve (SB.msgc-1 [4]): 455

C[C@@H]1O[C@@H](O[C@H]\2CC[C@]\3(C)[C@@H]4CC[C@]5(C)[C@@H](CC[C@@]5(O)[C@H]4CCC3=C2)C/6=C/OC(=O)/C=C6)[C@H](O)[C@H](O)[C@@H]1O [Proscillaridin] (top concentration 46.0829 µM)
viability (SB.mhdgc-1 [1]): 15.5%
viability (SB.msgc-1 [2]): 47%
area under the dose-response curve (SB.mhdgc-1 [3]): 238
area under the dose-response curve (SB.msgc-1 [4]): 314

CC/C(=C(\c1ccccc1)c1ccc(OCCN(C)C)cc1)c1ccccc1 [Tamoxifen] (top concentration 46.0829 µM)
viability (SB.mhdgc-1 [1]): 23.9%
viability (SB.msgc-1 [2]): 57.5%
area under the dose-response curve (SB.mhdgc-1 [3]): 522
area under the dose-response curve (SB.msgc-1 [4]): 475

CC(Cc1ccc(O)c(O)c1)(NN)C(=O)O (centres undefined) [Carbidopa] (top concentration 46.0829 µM)
viability (SB.mhdgc-1 [1]): 109%
viability (SB.msgc-1 [2]): 74.1%
area under the dose-response curve (SB.mhdgc-1 [3]): 622
area under the dose-response curve (SB.msgc-1 [4]): 570

C#CCN(C)[C@H](C)Cc1ccccc1 [Selegiline hydrochloride] (top concentration 46.0829 µM)
viability (SB.mhdgc-1 [1]): 81.3%
viability (SB.msgc-1 [2]): 110%
area under the dose-response curve (SB.mhdgc-1 [3]): 493
area under the dose-response curve (SB.msgc-1 [4]): 520

NNCCc1ccccc1 [Phenelzine] (top concentration 46.0829 µM)
viability (SB.mhdgc-1 [1]): 96.7%
viability (SB.msgc-1 [2]): 86.5%
area under the dose-response curve (SB.mhdgc-1 [3]): 554
area under the dose-response curve (SB.msgc-1 [4]): 558

OC[C@@H](O)[C@@H](O)[C@H](O)[C@@H](O)CO [Mannitol] (top concentration 46.0829 µM)
viability (SB.mhdgc-1 [1]): 112%
viability (SB.msgc-1 [2]): 110%
area under the dose-response curve (SB.mhdgc-1 [3]): 598
area under the dose-response curve (SB.msgc-1 [4]): 526

NC/1=N/C(=O)N(/C=C1)[C@H]2CC[C@@H](CO)O2 [Zalcitabine] (top concentration 46.0829 µM)
viability (SB.mhdgc-1 [1]): 61.1%
viability (SB.msgc-1 [2]): 49.5%
area under the dose-response curve (SB.mhdgc-1 [3]): 428
area under the dose-response curve (SB.msgc-1 [4]): 391

OC[C@H]1OCC(O1)[N@@]2C=CC(N)=NC2=O (some centres undefined) [Troxacitabine] (top concentration 46.0829 µM)
viability (SB.mhdgc-1 [1]): 103%
viability (SB.msgc-1 [2]): 109%
area under the dose-response curve (SB.mhdgc-1 [3]): 538
area under the dose-response curve (SB.msgc-1 [4]): 507

C[C@@H]1C[C@@H]([C@H](O)CC2CC(=O)NC(=O)C2)C(=O)[C@@H](C)C1 [cycloheximide] (top concentration 46.0829 µM)
viability (SB.mhdgc-1 [1]): 51.1%
viability (SB.msgc-1 [2]): 32.6%
area under the dose-response curve (SB.mhdgc-1 [3]): 391
area under the dose-response curve (SB.msgc-1 [4]): 347

C#Cc1cccc(Nc2ncnc3cc(OCCOC)c(OCCO)cc23)c1 [OSI-420] (top concentration 46.0829 µM)
viability (SB.mhdgc-1 [1]): 44.9%
viability (SB.msgc-1 [2]): 26%
area under the dose-response curve (SB.mhdgc-1 [3]): 410
area under the dose-response curve (SB.msgc-1 [4]): 406

COc1ccc(C(CN(C)C)C2(O)CCCCC2)cc1 (centres undefined) [Venlafaxine hydrochloride] (top concentration 46.0829 µM)
viability (SB.mhdgc-1 [1]): 90.6%
viability (SB.msgc-1 [2]): 81.9%
area under the dose-response curve (SB.mhdgc-1 [3]): 519
area under the dose-response curve (SB.msgc-1 [4]): 516

CNC[C@H](O)[C@@H](O)[C@H](O)[C@H](O)CO [Meglumine] (top concentration 46.0829 µM)
viability (SB.mhdgc-1 [1]): 111%
viability (SB.msgc-1 [2]): 118%
area under the dose-response curve (SB.mhdgc-1 [3]): 556
area under the dose-response curve (SB.msgc-1 [4]): 563

CCc1c(C(=O)C(N)=O)c2c(OCC(=O)O)cccc2n1Cc1ccccc1 [Varespladib] (top concentration 46.0829 µM)
viability (SB.mhdgc-1 [1]): 49.9%
viability (SB.msgc-1 [2]): 55.3%
area under the dose-response curve (SB.mhdgc-1 [3]): 543
area under the dose-response curve (SB.msgc-1 [4]): 523

CC[C@H](C)[N]1C=C(C)C2=C1C=C(C=C2C(=O)NC\C3=C(C)\C=C(\C)NC3=O)C4=CC=C(N=C4)N5CCNCC5 [GSK126] (top concentration 46.0829 µM)
viability (SB.mhdgc-1 [1]): 3.9%
viability (SB.msgc-1 [2]): 18.6%
area under the dose-response curve (SB.mhdgc-1 [3]): 389
area under the dose-response curve (SB.msgc-1 [4]): 444

C=C(C)[C@@H]1CC[C@]2(C)CC[C@]3(C)[C@H](CC[C@@H]4[C@@]5(C)CC[C@H](O)C(C)(C)[C@@H]5CC[C@]43C)[C@@H]12 [Lupeol] (top concentration 46.0829 µM)
viability (SB.mhdgc-1 [1]): 134%
viability (SB.msgc-1 [2]): 108%
area under the dose-response curve (SB.mhdgc-1 [3]): 609
area under the dose-response curve (SB.msgc-1 [4]): 522

CC(C)Oc1cc(Nc2nc(N[C@@H](C)c3ccc(F)cn3)ncc2Cl)n[nH]1 [AZ-23] (top concentration 46.0829 µM)
viability (SB.mhdgc-1 [1]): 40.2%
viability (SB.msgc-1 [2]): 32%
area under the dose-response curve (SB.mhdgc-1 [3]): 473
area under the dose-response curve (SB.msgc-1 [4]): 499

c1cc(N[C@@H]2CCNC2)nc(-c2cnc3ccc(-c4cn[nH]c4)cn23)c1 (top concentration 46.0829 µM)
viability (SB.mhdgc-1 [1]): 71.4%
viability (SB.msgc-1 [2]): 69.3%
area under the dose-response curve (SB.mhdgc-1 [3]): 426
area under the dose-response curve (SB.msgc-1 [4]): 524

CCC\C1=C\C(=O)NC(=S)N1 [Propylthiouracil] (top concentration 46.0829 µM)
viability (SB.mhdgc-1 [1]): 64.9%
viability (SB.msgc-1 [2]): 112%
area under the dose-response curve (SB.mhdgc-1 [3]): 545
area under the dose-response curve (SB.msgc-1 [4]): 584

CC1(C)CCC(=C(CN2CCN(CC2)C3=CC=C(C=C3)C(=O)N[S+]([O-])(=O)C4=CC(=C(N[C@H](CCN5CCOCC5)CSC6=CC=CC=C6)C=C4)[S+]([O-])(=O)C(F)(F)F)\C1)/C7=CC=C(Cl)C=C7 [Navitoclax] (top concentration 46.0829 µM)
viability (SB.mhdgc-1 [1]): 2.64%
viability (SB.msgc-1 [2]): 4.94%
area under the dose-response curve (SB.mhdgc-1 [3]): 314
area under the dose-response curve (SB.msgc-1 [4]): 446

COc1cc2nc(-c3cc(F)ccc3O)nc(N[C@@H]3CNC[C@H]3C(C)(C)O)c2cc1OC (top concentration 46.0829 µM)
viability (SB.mhdgc-1 [1]): 3.32%
viability (SB.msgc-1 [2]): 24.8%
area under the dose-response curve (SB.mhdgc-1 [3]): 384
area under the dose-response curve (SB.msgc-1 [4]): 469

CN(C)CCCN\C1=C\2C(=O)N(C)C(=O)\N=C2N(C)C3=C1C=CC=C3 (top concentration 46.0829 µM)
viability (SB.mhdgc-1 [1]): 55.1%
viability (SB.msgc-1 [2]): 55.9%
area under the dose-response curve (SB.mhdgc-1 [3]): 433
area under the dose-response curve (SB.msgc-1 [4]): 518

CN(C)c1nc(Cc2ccc(NC(=O)c3ccc4ccccc4c3)cc2)nc(Cl)c1CC(=O)O [AP-768] (top concentration 46.0829 µM)
viability (SB.mhdgc-1 [1]): 95.4%
viability (SB.msgc-1 [2]): 112%
area under the dose-response curve (SB.mhdgc-1 [3]): 509
area under the dose-response curve (SB.msgc-1 [4]): 556

CCc1cc2c(cc1N1CCC(N3CCOCC3)CC1)C(C)(C)c1[nH]c3cc(C#N)ccc3c1C2=O (top concentration 46.0829 µM)
viability (SB.mhdgc-1 [1]): 1.11%
viability (SB.msgc-1 [2]): 61.4%
area under the dose-response curve (SB.mhdgc-1 [3]): 395
area under the dose-response curve (SB.msgc-1 [4]): 473

C[C@]12C[C@H](O)[C@H]3[C@@H](CC\C4=C\C(=O)\C=C/[C@]34C)[C@@H]1CC[C@]2(O)C(=O)CO [Prednisolone] (top concentration 46.0829 µM)
viability (SB.mhdgc-1 [1]): 70.8%
viability (SB.msgc-1 [2]): 79.8%
area under the dose-response curve (SB.mhdgc-1 [3]): 558
area under the dose-response curve (SB.msgc-1 [4]): 571

NCC1CCC(C(=O)O)CC1 (centres undefined) [Tranexamic acid] (top concentration 46.0829 µM)
viability (SB.mhdgc-1 [1]): 114%
viability (SB.msgc-1 [2]): 108%
area under the dose-response curve (SB.mhdgc-1 [3]): 610
area under the dose-response curve (SB.msgc-1 [4]): 517

CCN(CC)C(=S)SSC(=S)N(CC)CC [Disulfiram] (top concentration 46.0829 µM)
viability (SB.mhdgc-1 [1]): 3.68%
viability (SB.msgc-1 [2]): 32.4%
area under the dose-response curve (SB.mhdgc-1 [3]): 141
area under the dose-response curve (SB.msgc-1 [4]): 360

O=C(Nc1ccncc1)C(=O)c1cn(Cc2ccc(Cl)cc2)c2ccccc12 [Indibulin] (top concentration 46.0829 µM)
viability (SB.mhdgc-1 [1]): 70.3%
viability (SB.msgc-1 [2]): 34.1%
area under the dose-response curve (SB.mhdgc-1 [3]): 468
area under the dose-response curve (SB.msgc-1 [4]): 398

c1ccc2c(Oc3nc(Nc4ccc(N5CCOCC5)cc4)c4ncn(C5CCCCC5)c4n3)cccc2c1 [purmorphamine] (top concentration 46.0829 µM)
viability (SB.mhdgc-1 [1]): 58%
viability (SB.msgc-1 [2]): 58.9%
area under the dose-response curve (SB.mhdgc-1 [3]): 460
area under the dose-response curve (SB.msgc-1 [4]): 475

NCC/1=C/NC(=S)N1[C@H]2CCC3=C(F)C=C(F)C=C3C2 [Nepicastat hydrochloride] (top concentration 46.0829 µM)
viability (SB.mhdgc-1 [1]): 46.2%
viability (SB.msgc-1 [2]): 8.83%
area under the dose-response curve (SB.mhdgc-1 [3]): 545
area under the dose-response curve (SB.msgc-1 [4]): 495

C[C@](O)(CS(=O)(=O)c1ccc(F)cc1)C(=O)Nc1ccc(C#N)c(C(F)(F)F)c1 [(R)-Bicalutamide] (top concentration 46.0829 µM)
viability (SB.mhdgc-1 [1]): 1.24%
viability (SB.msgc-1 [2]): 3.76%
area under the dose-response curve (SB.mhdgc-1 [3]): 301
area under the dose-response curve (SB.msgc-1 [4]): 377

CC(C)C[C@H](NC(=O)[C@H](Cc1ccccc1)NC(=O)c1cnccn1)B(O)O [Bortezomib] (top concentration 46.0829 µM)
viability (SB.mhdgc-1 [1]): 3.74%
viability (SB.msgc-1 [2]): 3.19%
area under the dose-response curve (SB.mhdgc-1 [3]): 157
area under the dose-response curve (SB.msgc-1 [4]): 137
